The values below come from US5401768A, “2,5,6,7-tetranor-4,8-inter-m-phenylene PGI2, derivative, manufacturing process thereof and its use” (Toray Industries, Inc., priority 1987, dated 1995).

For experiment [1], the system named is ulcer index (corpus of stomack). Kind of experiment: Cytoprotection (0.2N NaOH-induced gastric lesions, oral compound). The experiment is classed as in vivo. The settings on record: 30 minutes before oral 0.2N NaOH, read-out: ED50 (dose by which the ulcer index decreased to 50% of control). The procedure: According to the method by A. Robert (Gartroerterolegy, 77(3), 443 (1979)), 30 minutes after oral administration of the compound, 0.2N NaOH was administered orally to the animals. After an hour, the animal was sacrified by chloroform anesthesia and the stomack was removed and fixed in 5% formalin solution. After fixation, the stomack was cut along the great curvature. A total length of blooding spot appearing on the corpus of stomack was measured and served as the ulcer index. When the ulcer index of the control group is taken as 100%, the dose of the compound by which the ulcer index decreased to 50% is designated as ED50.

Experiment [2] concerns pressure of carotid arteries. As to the kind of experiment: Hypotensive effect (carotid artery pressure, chloralose anesthesia). In kind it is in vivo, Wistar rat (male). Particulars: Rattus norvegicus, femoral catheter injection, read-out: ED25 mmHg (dose which may reduce the blood pressure by 25 mmHg). The procedure: Under chloralose anesthesia, catheter was inserted to carotid arteries of Wistar rat (male). The catheter was connected to a polygraph via pressure transducer to measure the pressure of carotid arteries. The compound was injected via catheter connected to a femoral articles. The dose which may reduce the blood pressure by 25 mmHg from the dose-response curve was designated as ED25. The effectiveness of each compound was compared based on it.

Experiment [3] has as its system gastric acid secretion. As to the kind of experiment: Gastric acid secretion-inhibiting action by pylorus ligation (Shay's method). In kind it is in vivo. The settings on record: Rattus norvegicus, injected into duodenum, 5 hours, 5 animals in a group. The protocol: Gastric acid secretion-inhibiting action by pylorus ligation
According to the Shay's method (Gastroeuterology 5, 43 (1945)), median section was performed on abdomen of the rat under ether anesthesia and pylorus was ligated with thread. At the same time, the compound was injected into duodenum and then the incision was closed. After 5 hours, the abdomen was incised again and whole stomach was removed after ligating esophagus. The great curvature of the stomack was incised and the content was transferred to a graduated centrifuge tube. After centrifugation at 3000 rpm for 10 minutes, the volume of the gastric juice was measured. A part of the supernatant was sampled and was titrated with 0.1N NaOH until the pH became 7 using pH star (commercially available from Radio Meter Co., Ltd.).

Experiment [4] has as its system platelet aggregation. Kind of experiment: Platelet aggregation-inhibiting action (ADP-induced, platelet-rich plasma). In kind it is cell-based. Particulars: ADP 10 μM, compound added 1 minute before ADP, human PRP, read-out: IC50 (concentration which inhibits 50% platelet aggregation). The procedure: Blood taken from human median cubital vein was centrifuged at 800 rpm for 10 minutes and the upper part was collected as platelet-rich plasma (PRP). PRP was put into small test tubes and […] (ADP) was added thereto (final concentration of 10 μM) to induce platelet aggregation. The degree of platelet aggregation was measured as the change of turbidity determined by using a platelet aggregation measuring apparatus (commercially available from Rikadenki Co., Ltd., Tokyo). The compound was added 1 minute before the addition of ADP. The concentration which inhibits 50% aggregation was designated as IC50.

Experiment [5] concerns gastric acid secretion. Kind of experiment: Gastric acid secretion-inhibiting action (pentagastrin-stimulated, perfused stomach). In kind it is in vivo, Male SD rat. Particulars: PGE2 = 1; pentagastrin 0.05 μg/kg/min; femoral vein injection; area under pH curve. The protocol:
Gastric acid secretion-inhibiting action
Male SD rat was incised in the abdomen under urethane anesthesia to open a hole at lumen of stomach. A double cannula was inserted from the hole and physiological saline was perfused in the stomack. The gastric acid flowed out was monitored by a pH meter (M. Chosh, H. Schild Br.J. Pharmacol 13, 54 (1958)). When the pH of the gastric acid was stabilized to about 4 after stimulation with continuous injection of pentagastrin at a rate of 0.05 μg/kg/min, the compound was injected through the femoral vein. As an index of the gastric acid secretion-inhibiting effect was measured using area enclosed by the curve from the point at which the pH started to increase by the gastric acid secretion-inhibiting effect to the point at which the pH is come back to the baseline. The relative effectiveness of gastric acid secretion-inhibiting effect of a compound was expressed when the value of PGE2 is 1, and the effectiveness of each compound was compared.

Where [6] appears, read: level of the acid (mEq/ml), read-out: ED50 Gastric Acid.
Setting [7] is: volume decreased to 50% of control, read-out: ED50 Volume of Gastric Juice.

Converted amounts (≈) assume the structure as drawn. Like-named read-outs stand apart in the source and are kept apart here. A value given as a limit tells only on which side of the number the result lay.

In general, ED50 refers to the midpoint of the dose-response relation. Regarding `CCCCC(C)(C)[C@H](O)/C=C/[C@@H]1[C@H]2c3cccc(CCC(=O)O)c3O[C@H]2C[C@H]1O` (relative stereo) [Compound 48, 16,16-dimethyl-2,5,6,7-tetranor-4,8-inter-m-phenylene PGI2], the ED50 in experiment [1] was 0.0023 mg/kg; in experiment [3] (setting [6]), 0.63 mg/kg; in experiment [3] (setting [7]), 6.3 mg/kg. For the same compound, the ED (25 mmHg) in experiment [2] came to 0.00084 mg/kg. The IC50 in experiment [4] is 1000 ng/mL (≈ 2.48 µM).

As for `CCCCC[C@H](O)/C=C/[C@H]1[C@H](O)CC(=O)[C@@H]1C/C=C\CCCC(=O)O` [PGE2, reference compound], the “Relative Effectiveness to PGE2 (gastric acid secretion inhibition)” value in experiment [5] worked out at 1.

For `CCC[C@H](C)C[C@H](O)/C=C/[C@@H]1[C@H]2c3cccc(CCC(=O)O)c3O[C@H]2C[C@H]1O` [Compound 54, 17-(S)-methyl-2,5,6,7-tetranor-4,8-inter-m-phenylene PGI2], the results for the ED50 in experiment [1], in experiment [3] (setting [6]) and in experiment [3] (setting [7]) were 0.00086 mg/kg, 0.11 mg/kg and 0.015 mg/kg, respectively. Further, the ED (25 mmHg) in experiment [2] amounted to 0.00078 mg/kg. Besides, the “Relative Effectiveness to PGE2 (gastric acid secretion inhibition)” value in experiment [5] is given as 6.1. Besides, the IC50 in experiment [4] amounted to 3.2 ng/mL (≈ 0.00824 µM).

Consider `O=C(O)CCc1cccc2c1O[C@H]1C[C@@H](O)[C@H](/C=C/[C@@H](O)C3CCCCC3)[C@@H]21` (relative stereo) [Compound 60, 15-cyclohexyl-2,5,6,7,16,17,18,19,20-nonanor-4,8-inter-m-phenylene PGI2], for which the ED50 was found to be 0.00679 mg/kg in experiment [1], 2.39 mg/kg in experiment [3] (setting [6]) and 1.19 mg/kg in experiment [3] (setting [7]). The ED (25 mmHg) in experiment [2] was found to be 0.00017 mg/kg. The “Relative Effectiveness to PGE2 (gastric acid secretion inhibition)” value in experiment [5] is 1.3. Also, the IC50 in experiment [4] was 3.8 ng/mL (≈ 0.00983 µM).

With `CCCCC[C@H](O)/C=C/[C@@H]1[C@H]2c3cccc(CCC(=O)O)c3O[C@H]2C[C@H]1O` (relative stereo) [Compound 42, 2,5,6,7-tetranor-4,8-inter-m-phenylene PGI2], the ED50 in experiment [1] came to 0.0486 mg/kg; in experiment [3] (setting [6]), 3.8 mg/kg; in experiment [3] (setting [7]), 4.6 mg/kg. For the same compound, the ED (25 mmHg) in experiment [2] came out at 0.00046 mg/kg. Moreover, in experiment [5], the “Relative Effectiveness to PGE2 (gastric acid secretion inhibition)” value worked out at 3.6. Further, the IC50 in experiment [4] was 5.8 ng/mL (≈ 0.0155 µM).

Regarding `O=C(O)CCc1cccc2c1O[C@H]1C[C@@H](O)[C@H](/C=C/[C@@H](O)c3ccccc3)[C@@H]21` (relative stereo) [Compound 71, 15-phenyl-2,5,6,7,16,17,18,19,20-nonanor-4,8-inter-m-phenylene PGI2], the values for the ED50 in experiment [1], in experiment [3] (setting [6]) and in experiment [3] (setting [7]) were 0.0015 mg/kg, 0.034 mg/kg and 0.045 mg/kg, respectively. Moreover, the ED (25 mmHg) in experiment [2] is 0.00026 mg/kg. The “Relative Effectiveness to PGE2 (gastric acid secretion inhibition)” value in experiment [5] is on record as 7.1. Moreover, the IC50 in experiment [4] stood at 2.85 ng/mL (≈ 0.00749 µM).

Regarding `O=C(O)CCc1cccc2c1O[C@H]1C[C@@H](O)[C@H](/C=C/[C@@H](O)COc3ccccc3)[C@@H]21` (relative stereo) [Compound 120, 16-phenoxy-2,5,6,7,17,18,19,20-octanor-4,8-inter-m-phenylene PGI2], the median effective dose (ED50) in experiment [1] stood at 0.00456 mg/kg; in experiment [3] (setting [6]), 0.11 mg/kg; in experiment [3] (setting [7]), 0.3 mg/kg. In addition, the ED (25 mmHg) in experiment [2] worked out at 0.00051 mg/kg. Moreover, in experiment [5], the “Relative Effectiveness to PGE2 (gastric acid secretion inhibition)” value is on record as 54. For the same compound, the IC50 in experiment [4] turned out to be 1000 ng/mL (≈ 2.44 µM).

In the case of `CCOCC(C)(C)[C@H](O)/C=C/[C@@H]1[C@H]2c3cccc(CCC(=O)O)c3O[C@H]2C[C@H]1O` (relative stereo) [Compound 108, 16,16-dimethyl-2,5,6,7-tetranor-18-oxa-4,8-inter-m-phenylene PGI2], the ED50 is 0.0035 mg/kg in experiment [1], 2.02 mg/kg in experiment [3] (setting [6]) and above 10 mg/kg in experiment [3] (setting [7]). The “Relative Effectiveness to PGE2 (gastric acid secretion inhibition)” value in experiment [5] came to 7.0.

Consider `CCCOC[C@H](O)/C=C/[C@@H]1[C@H]2c3cccc(CCC(=O)O)c3O[C@H]2C[C@H]1O` (relative stereo) [Compound 101, 2,5,6,7-tetranor-17-oxa-4,8-inter-m-phenylene PGI2], for which the ED50 in experiment [1] is 0.0789 mg/kg; in experiment [3] (setting [6]), 0.9 mg/kg; in experiment [3] (setting [7]), 1.4 mg/kg. In addition, the ED (25 mmHg) in experiment [2] was 0.0015 mg/kg. Further, the “Relative Effectiveness to PGE2 (gastric acid secretion inhibition)” value in experiment [5] is 4.9.

Regarding `CC(C)(Oc1ccccc1)[C@H](O)/C=C/[C@@H]1[C@H]2c3cccc(CCC(=O)O)c3O[C@H]2C[C@H]1O` (relative stereo) [Compound 124, 16-methyl-16-phenoxy-2,5,6,7,18,19,20-heptanor-4,8-inter-m-phenylene PGI2], the ED50 in experiment [1] is 0.003 mg/kg; in experiment [3] (setting [6]) it was 0.19 mg/kg; in experiment [3] (setting [7]), 0.75 mg/kg. Further, the ED (25 mmHg) in experiment [2] worked out at 0.0013 mg/kg. Moreover, in experiment [5], the “Relative Effectiveness to PGE2 (gastric acid secretion inhibition)” value is 62.

As to `CCCCCC[C@H](O)/C=C/[C@@H]1[C@H]2c3cccc(CCC(=O)O)c3O[C@H]2C[C@H]1O` (relative stereo) [Compound 45, 20a-homo-2,5,6,7-tetranor-4,8-inter-m-phenylene PGI2], in experiment [5], the “Relative Effectiveness to PGE2 (gastric acid secretion inhibition)” value was 3.5.

As for `CCCCC(C)[C@H](O)/C=C/[C@@H]1[C@H]2c3cccc(CCC(=O)O)c3O[C@H]2C[C@H]1O` (some centres unmarked) [Compound 51, 16-methyl-2,5,6,7-tetranor-4,8-inter-m-phenylene PGI2], the ED50 is 0.00046 mg/kg in experiment [1], 0.21 mg/kg in experiment [3] (setting [6]) and 0.36 mg/kg in experiment [3] (setting [7]). The ED (25 mmHg) in experiment [2] came out at 0.00011 mg/kg. For the same compound, in experiment [5], the “Relative Effectiveness to PGE2 (gastric acid secretion inhibition)” value worked out at 35.
